Laboratory results: BindingDB's records for doi:10.1016/j.bmc.2006.01.067 (Johnson & Johnson Pharmaceutical, 2006)

Target: T1, Integrin alpha-4/beta-7 (Homo sapiens, UniProt P13612+P26010)
T1 sequence (P13612 whole entry): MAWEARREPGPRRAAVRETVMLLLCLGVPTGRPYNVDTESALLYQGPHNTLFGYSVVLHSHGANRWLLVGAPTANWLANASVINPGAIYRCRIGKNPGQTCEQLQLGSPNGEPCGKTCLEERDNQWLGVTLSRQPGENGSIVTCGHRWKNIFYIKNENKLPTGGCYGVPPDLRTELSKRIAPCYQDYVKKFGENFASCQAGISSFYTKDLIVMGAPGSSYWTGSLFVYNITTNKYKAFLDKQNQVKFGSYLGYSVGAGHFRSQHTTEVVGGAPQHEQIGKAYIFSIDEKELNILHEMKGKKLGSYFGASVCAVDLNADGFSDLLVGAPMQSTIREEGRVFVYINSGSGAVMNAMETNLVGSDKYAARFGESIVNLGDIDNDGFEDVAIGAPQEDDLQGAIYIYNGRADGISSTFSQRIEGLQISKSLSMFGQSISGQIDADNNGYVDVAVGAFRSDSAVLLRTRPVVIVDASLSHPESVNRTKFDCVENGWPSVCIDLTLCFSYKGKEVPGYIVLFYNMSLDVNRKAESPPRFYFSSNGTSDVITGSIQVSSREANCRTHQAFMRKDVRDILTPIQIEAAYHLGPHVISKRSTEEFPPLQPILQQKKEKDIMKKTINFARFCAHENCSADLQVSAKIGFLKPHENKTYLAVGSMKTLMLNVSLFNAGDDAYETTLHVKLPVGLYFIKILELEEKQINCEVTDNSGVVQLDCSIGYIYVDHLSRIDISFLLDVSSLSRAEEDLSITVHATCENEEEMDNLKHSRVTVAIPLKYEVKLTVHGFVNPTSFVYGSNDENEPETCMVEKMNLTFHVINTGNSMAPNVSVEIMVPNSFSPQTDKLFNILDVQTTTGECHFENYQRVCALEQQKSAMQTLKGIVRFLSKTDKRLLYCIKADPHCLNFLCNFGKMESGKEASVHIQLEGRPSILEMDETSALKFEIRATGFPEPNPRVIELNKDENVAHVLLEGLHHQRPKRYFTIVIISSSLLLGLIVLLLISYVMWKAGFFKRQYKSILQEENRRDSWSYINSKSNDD
T1 sequence (P26010 whole entry): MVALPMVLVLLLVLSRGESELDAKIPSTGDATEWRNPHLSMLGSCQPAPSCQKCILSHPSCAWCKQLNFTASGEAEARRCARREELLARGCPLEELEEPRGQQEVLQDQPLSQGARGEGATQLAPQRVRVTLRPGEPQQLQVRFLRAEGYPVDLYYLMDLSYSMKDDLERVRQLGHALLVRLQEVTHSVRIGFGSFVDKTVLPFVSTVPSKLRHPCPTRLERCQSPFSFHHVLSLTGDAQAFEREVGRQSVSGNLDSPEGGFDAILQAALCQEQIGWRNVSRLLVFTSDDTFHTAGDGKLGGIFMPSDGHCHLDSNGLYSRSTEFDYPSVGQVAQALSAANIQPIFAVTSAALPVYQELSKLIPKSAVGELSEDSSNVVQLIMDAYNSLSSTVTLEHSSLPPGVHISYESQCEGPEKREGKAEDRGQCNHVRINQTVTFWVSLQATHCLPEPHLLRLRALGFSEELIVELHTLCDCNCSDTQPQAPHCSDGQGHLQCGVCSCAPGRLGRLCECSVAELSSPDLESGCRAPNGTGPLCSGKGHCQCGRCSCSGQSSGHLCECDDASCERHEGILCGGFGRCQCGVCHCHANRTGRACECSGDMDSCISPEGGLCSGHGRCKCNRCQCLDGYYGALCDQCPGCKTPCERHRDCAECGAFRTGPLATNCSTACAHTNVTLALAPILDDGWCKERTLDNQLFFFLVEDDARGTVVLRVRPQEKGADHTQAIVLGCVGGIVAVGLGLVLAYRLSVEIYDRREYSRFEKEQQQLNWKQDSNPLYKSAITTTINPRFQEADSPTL
Assay: K562 Cell Adhesion Assay (alpha4beta7 Mediated Adhesion/MAdCAM-1)
Settings: pH 7.4; 23 °C
Description: M2 anti-FLAG antibody coated 96-well plates were coated with recombinant FLAG-hMAdCAM-1 contained in Dulbecco PBS. The compounds to be tested were added. Stably transfected K562 cells expressing human alpha4beta7 integrin that had been labeled with […] fluorescein diacetate succinimidyl ester (CFDA-SE) were added to each well and allowed to adhere for 1 h at room temperature. Plates were washed, and then cells were lysed. The plate was read on a 96-well fluorescent plate reader at 485 nm excitation and 530 nm emission.

| IC50 | SMILES |
| --- | --- |
| 0.11 µM | O=C(O)[C@H](Cc1ccc(N2C(=O)c3ccccc3C2=O)cc1)NC(=O)[C@@H]1C2CCC(CC2)N1S(=O)(=O)c1ccccc1 |
| 0.12 µM | O=C(Nc1ccc(C[C@H](NC(=O)[C@@H]2C3CCC(CC3)N2S(=O)(=O)c2ccccc2)C(=O)O)cc1)c1ccncc1 [(2S)-2-{[(3S)-2-(benzenesulfonyl)-2-azabicyclo[2.2.2]octan-3-yl]formamido}-3-[4-(pyridine-4-amido)phenyl]propanoic acid] |
| 0.046 µM | O=C(Nc1ccc(C[C@H](NC(=O)[C@@H]2C3CCC(CC3)N2S(=O)(=O)c2ccccc2)C(=O)O)cc1)c1cc(Cl)nc(Cl)c1 [(2S)-2-{[(3S)-2-(benzenesulfonyl)-2-azabicyclo[2.2.2]octan-3-yl]formamido}-3-{4-[(2,6-dichloropyridine-4-)amido]phenyl}propanoic acid] |
